Experimental data as given in paper PMC6748952, “Identification, Functional Characterization, and Pharmacological Analysis of Two Sulfakinin Receptors in the Medically-Important Insect Rhodnius prolixus” (Scientific Reports, 2019).
“Also recorded” adds a separate entry of the source. Blank lines part the entries; values can stand above or below the molecule they belong to. Where no end group is shown, it is not given here.

Tests used:
Rhopr-SKR-2 [1] = test: Second messenger pathway assay (PLC inhibitor U73122 or EGTA), Rhopr-SKR-2 in HEK293/CNG cells; format: cell-based, Rhodnius prolixus; details: for EC50: 3 replicates, read-out: EC50, luminescence response; for luminescence response: with 10 μM U73122 (10 minutes incubation)
Description: (§1) To test whether cAMP and/or Ca^2+ are the second messengers for Rhopr-SKR-1 and Rhopr-SKR-2, HEK293/CNG cells were transfected with each receptor, as previously mentioned, then split into cells that were suspended in calcium-free DMEM with the extracellular calcium chelator EGTA (10 μM) or cells treated with the PLC inhibitor U73122 (10 μM) (Sigma Aldrich, Oakville, ON, Canada). […] HEK293/CNG cells with receptors that work via the Ca^2+ pathway would be unable to evoke luminescence in the presence of U73122. The modified CNG channel in HEK293/CNG causes extracellular Ca^2+ to flow into the cell upon an increase in cytoplasmic cAMP levels. Receptors that solely work through the cAMP pathway would be unable to produce a response in calcium-free media with EGTA. Moreover, receptors that work via both Ca^2+ and cAMP would elicit a response in the presence of either U73122 or EGTA in calcium-free media.
(§2) HEK293/CNG cells were used via the same protocol as previously stated. Luminescence was measured in 5-second intervals for a total of 30 seconds. In the first set of experiments, the transfected cells were incubated in 10 μM of U73122 for 10 minutes prior to measuring luminescence in response to the addition of sulfated Rhopr-SK-1 or Rhopr-SK-2. To confirm the viability of the utilized cells, media in 1.5% Triton X-100 served as a positive control. In the second set of experiments, cells were suspended in calcium-free DMEM (Thermo Fisher Scientific, Waltham, MA, USA) with 10 μM of the extracellular calcium chelator EGTA. Here, luminescence was measured in response to sulfated Rhopr-SK-1 or Rhopr-SK-2 in calcium-free DMEM in the presence of EGTA. A batch of cells that was also pre-incubated in calcium-free DMEM with EGTA were then washed, incubated in regular DMEM, and then tested in response to sulfated Rhopr-SK-1 and […]. Forskolin, which is a stimulator of adenylate cyclase, and the cAMP analog dibutyryl cAMP (dbcAMP) were utilized as controls to confirm the expression of functional CNG channels in the HEK293/CNG cells. ATP served as a positive control. GraphPad Prism version 8.00 (https://www.graphpad.com) was used to analyze the bioluminescence results.

Rhopr-SKR-1 [2] = test: Second messenger pathway assay (PLC inhibitor U73122 or EGTA), Rhopr-SKR-1 in HEK293/CNG cells; format: cell-based, Rhodnius prolixus; details: for luminescence response of control agents: cells expressing Rhopr-SKR-1, confirms functional CNG channels (Fig. S4); for EC50: 3 replicates, read-out: EC50, luminescence response; for luminescence response: with 10 μM U73122 (10 minutes incubation)
Description: as §1, §2

PLC pathway = details: HEK293/CNG cell line; cited from earlier work
Description: To test whether cAMP and/or Ca^2+ are the second messengers for Rhopr-SKR-1 and Rhopr-SKR-2, HEK293/CNG cells were transfected with each receptor, as previously mentioned, then split into cells that were suspended in calcium-free DMEM with the extracellular calcium chelator EGTA (10 μM) or cells treated with the PLC inhibitor U73122 (10 μM) (Sigma Aldrich, Oakville, ON, Canada). […] HEK293/CNG cells with receptors that work via the Ca^2+ pathway would be unable to evoke luminescence in the pre ...

Rhopr-SKR-1 [3] = test: Functional receptor assay (aequorin bioluminescence), Rhopr-SKR-1 transiently expressed in HEK293/CNG cells; format: cell-based, Rhodnius prolixus; details: for luminescence response / activation (in words) / EC50: HEK293/CNG, first 5-second interval, 3 replicates; for EC50: aequorin luminescence, coelenterazine h 5 μM, read-out: EC50, luminescence response
Description: (§3) An aequorin luminescence assay was utilized in order to measure Ca^2+ signaling in HEK293/CNG cells stably expressing a modified cyclic nucleotide-gated (CNG) channel. The cells were grown in Dulbecco’s Modified Eagle Medium Nutrient Mixture F12-Ham (DMEM/F-12) (Thermo Fisher Scientific, Waltham, MA, USA), with 1% penicillin/streptomycin, 10% fetal bovine serum (FBS), and 100 μg/mL G418 (Geneticin). The HEK293/CNG cells were consistently grown in vented T75 flasks and inclubated at 37 °C in 5% CO2. After reaching approximately 95% confluency, the mammalian cells were transiently co-transfected with the pIRES2-ZsGreen1 expression vector (containing Rhopr-SKR-1 or Rhopr-SKR-2) and the cytoplasmic luminescent reporter aequorin via X-tremeGENE^TM HP DNA Transfection Reagent (Roche Applied Science, Penzberg, Germany). Transfections were performed at a 2:1 ratio for the transfection reagent to the expression vectors. Cells transiently transfected with empty pIRES2-ZsGreen1 expression vectors served as a negative control. The cells were then incubated at 37 °C in 5% CO2 for 72 hours prior to performing the bioluminescence assay.
(§4) The bioluminescence assay was performed as previously described. At 72 hours post-transfection, the HEK293/CNG cells were harvested from the T75 flasks using a PBS with ethylenediaminetetraacetic acid (EDTA) solution then suspended in a bovine serum albumin (BSA) media (DMEM/F-12 with 1% penicillin/streptomycin and 1% BSA). Prior to the functional assay, the cells were incubated in coelenterazine h (Promega, Madison, WI, USA) to a 5 μM final concentration, and then incubated for 4 hours whilst stirring in the dark. The cells were then diluted 8-fold via BSA media. Rhopr-SK-1 and Rhopr-SK-2 (as well as nonsulfated Rhopr-SK-1) were prepared in BSA media then plated in duplicates on 96-well plates, with 50 μL of the cells then automatically injected into each of these wells via a Perkin Elmer Wallac 1420 Victor2 plate reader (Perkin Elmer, San Diego, CA, USA). The reader was used to measure luminescence response in consecutive five-second intervals (15 seconds in total). An extended Rhopr-FMRFamide (GNDNFMRFamide), tachykinin (Rhopr-TK-2), and Rhopr-Kinin-2 were used as controls to test for specificity. ATP was used as a positive control. HEK293/CNG cells transfected with empty pIRES2-ZsGreen1 vectors served as negative controls.

Rhopr-SKR-2 [4] = test: Functional receptor assay (aequorin bioluminescence), Rhopr-SKR-2 transiently expressed in HEK293/CNG cells; format: cell-based, Rhodnius prolixus; details: for luminescence response / activation (in words) / EC50: HEK293/CNG, first 5-second interval, 3 replicates; for EC50: aequorin luminescence, coelenterazine h 5 μM, read-out: EC50, luminescence response
Description: as §3, §4

HEK293/CNG cells = test: Negative control: HEK293/CNG cells transfected with empty pIRES2-ZsGreen1 plasmids; format: cell-based, human; details: empty pIRES2-ZsGreen1 (not shown)
Description: as §3, with “Cells transiently transfected with empty pIRES2-ZsGreen1 expression vectors served as a negative control. The cells were then incubated at 37 °C in 5% CO2 for 72 hours prior to performing the bioluminescence assay.” left out
The bioluminescence assay was performed as previously described. […] Rhopr-SK-1 and Rhopr-SK-2 (as well as nonsulfated Rhopr-SK-1) were prepared in BSA media then plated in duplicates on 96-well plates, with 50 μL of the cells then automatically injected into each of these wells via a Perkin Elmer Wallac 1420 Victor2 plate reader (Perkin Elmer, San Diego, CA, USA). The reader was used to measure luminescence response in consecutive five-second intervals (15 seconds in total). […]

R. prolixus = details: peptide injection; cited from earlier work
Excerpt: Silencing of SKs via RNAi has been linked to stimulation in the intake of food in G. bimaculatus[28] and T. castaneum. Additionally, RNAi-induced silencing of each of the transcripts for the two SKRs in T. castaneum led an increase of food intake by approximately 20% for SKR1[25] and 50% for SKR2[29]. […] In the present study, the transcript coding for Rhopr-SK-1 and Rhopr-SK-2 as well as the ...

[5] = absence of EGTA, media containing calcium
[6] = absence of U73122, media containing calcium
[7] = presence of EGTA (10 μM), calcium-free DMEM
[8] = Rhopr-SKR-1, absence of EGTA, media containing calcium
[9] = Rhopr-SKR-1, absence of U73122, media containing calcium
[10] = Rhopr-SKR-1, presence of EGTA (10 μM), calcium-free DMEM

Molecule: Nc1ncnc2c1ncn2[C@@H]1O[C@H](COP(=O)(O)OP(=O)(O)OP(=O)(O)O)[C@@H](O)[C@H]1O [ATP, reference compound]
bioluminescent response of ATP, positive control (Rhopr-SKR-2 [1]; all conditions (not shown)): elicited the expected positive bioluminescent response | bioluminescent response of ATP, positive control (Rhopr-SKR-1 [2]; Rhopr-SKR-1, all conditions (not shown)): elicited the expected positive bioluminescent response

Molecule: O=C(O)CN(CCOCCOCCN(CC(=O)O)CC(=O)O)CC(=O)O [EGTA, ethylene glycol-bis(β-aminoethyl ether)-N,N,N′,N′-tetraacetic acid, reference compound]
effect of EGTA on luminescence induced by Rhopr-SK-1 and Rhopr-SK-2 (Rhopr-SKR-2 [1]; calcium-free media containing EGTA (10 μM)): does not abolish the luminescence induced by Rhopr-SK-1 and Rhopr-SK-2 | effect of EGTA on luminescence induced by Rhopr-SK-1 and Rhopr-SK-2 (Rhopr-SKR-1 [2]; Rhopr-SKR-1, calcium-free media containing EGTA (10 μM)): does not abolish the luminescence induced by Rhopr-SK-1 and Rhopr-SK-2

Molecule: COc1ccc2c(c1)CC[C@@H]1[C@@H]2CC[C@]2(C)[C@@H](NCCCCCCN3C(=O)C=CC3=O)CC[C@@H]12 [U73122, reference compound]
inhibition of PLC pathway (PLC pathway): successfully inhibit the PLC pathway | effect of U73122 on luminescence response to Rhopr-SK-1 and Rhopr-SK-2 (Rhopr-SKR-2 [1]; 10 μM): abolished the luminescence response to Rhopr-SK-1 and Rhopr-SK-2 | effect of U73122 on luminescence response to Rhopr-SK-1 and Rhopr-SK-2 (Rhopr-SKR-1 [2]; Rhopr-SKR-1, 10 μM): abolished the luminescence response to Rhopr-SK-1 and Rhopr-SK-2

Molecule: CCCC(=O)Nc1ncnc2c1ncn2[C@@H]1O[C@@H]2COP(=O)(O)O[C@H]2[C@H]1OC(=O)CCC [dibutyryl-cAMP, reference compound]
luminescence response of control agents (Rhopr-SKR-1 [2]): elicited luminescence responses

Molecule: C=C[C@@]1(C)CC(=O)[C@]2(O)[C@@]3(C)[C@@H](O)CCC(C)(C)[C@@H]3[C@H](O)[C@H](OC(C)=O)[C@@]2(C)O1 [forskolin, reference compound]
luminescence response of control agents (Rhopr-SKR-1 [2]): elicited luminescence responses

Molecule: AKFSSWG-NH2 [Rhopr-Kinin-2, R. prolixus kinin, control for specificity, reference compound]
luminescence response / activation (in words) (Rhopr-SKR-1 [3]): little to no response | luminescence response / activation (in words) (Rhopr-SKR-2 [4]): little to no response

Molecule: APSTMGFQGVR-NH2 [Rhopr-TK-2, R. prolixus tachykinin, control for specificity, reference compound]
luminescence response / activation (in words) (Rhopr-SKR-1 [3]): little to no response | luminescence response / activation (in words) (Rhopr-SKR-2 [4]): little to no response

EC50 (Rhopr-SKR-1 [3]): 8.69 nM | EC50 (Rhopr-SKR-2 [4]): 0.101 nM | EC50 (Rhopr-SKR-2 [1]; [5]): 0.134 nM | EC50 (Rhopr-SKR-2 [1]; [6]): 0.121 nM | EC50 (Rhopr-SKR-2 [1]; [7]): 0.314 nM | EC50 (Rhopr-SKR-1 [2]; [8]): 6.86 nM | EC50 (Rhopr-SKR-1 [2]; [9]): 13.3 nM | EC50 (Rhopr-SKR-1 [2]; [10]): 30.2 nM
Molecule: GGSDEKFDDY(SO3H)GYMRFamide [Rhopr-SK-2, native R. prolixus sulfakinin 2, custom synthesized]
luminescence response / activation (in words) (Rhopr-SKR-1 [3]): activated by sulfated Rhopr-SK-1 and sulfated Rhopr-SK-2 in a dose-dependent manner; also recorded: partial, though potent ligand | luminescence in empty-vector cells (HEK293/CNG cells): no luminescence | luminescence of Rhopr-SK-2 vs Rhopr-SK-1 (Rhopr-SKR-2 [4]; 1 × 10^−6 M, one way ANOVA, Tukey, ***P < 0.001, 3 replicates): lower | luminescence response / activation (in words) (Rhopr-SKR-2 [4]): activated by sulfated Rhopr-SK-1 and sulfated Rhopr-SK-2 in a dose-dependent manner; also recorded: partial, though potent ligand | luminescence response (Rhopr-SKR-2 [1]): unable to elicit a response | luminescence response (Rhopr-SKR-1 [2]; Rhopr-SKR-1): unable to elicit a response

Molecule: GNDNFMRF-NH2 [extended Rhopr-FMRFamide, control for specificity, reference compound]
luminescence response / activation (in words) (Rhopr-SKR-1 [3]): little to no response | luminescence response / activation (in words) (Rhopr-SKR-2 [4]): little to no response

EC50 (Rhopr-SKR-1 [3]): 0.532 nM | EC50 (Rhopr-SKR-2 [4]): 0.144 nM | EC50 (Rhopr-SKR-2 [1]; [5]): 0.214 nM | EC50 (Rhopr-SKR-2 [1]; [6]): 0.103 nM | EC50 (Rhopr-SKR-2 [1]; [7]): 0.344 nM | EC50 (Rhopr-SKR-1 [2]; [8]): 0.294 nM | EC50 (Rhopr-SKR-1 [2]; [9]): 0.317 nM | EC50 (Rhopr-SKR-1 [2]; [10]): 0.44 nM
Molecule: pQFNEY(SO3H)GHMRFamide [Rhopr-SK-1, native R. prolixus sulfakinin 1, custom synthesized]
potency of Rhopr-SK-1 relative to Rhopr-SK-2 (Rhopr-SKR-1 [3]): one order of magnitude more potent than Rhopr-SK-2 | luminescence response / activation (in words) (Rhopr-SKR-1 [3]): activated by sulfated Rhopr-SK-1 and sulfated Rhopr-SK-2 in a dose-dependent manner; also recorded: full, and potent ligand | luminescence in empty-vector cells (HEK293/CNG cells): no luminescence | potency of Rhopr-SK-1 relative to Rhopr-SK-2 (Rhopr-SKR-2 [4]): similar | luminescence response / activation (in words) (Rhopr-SKR-2 [4]): activated by sulfated Rhopr-SK-1 and sulfated Rhopr-SK-2 in a dose-dependent manner; also recorded: full, and potent ligand | luminescence response (Rhopr-SKR-2 [1]): unable to elicit a response | luminescence response (Rhopr-SKR-1 [2]; Rhopr-SKR-1): unable to elicit a response | size of blood meal (R. prolixus): took smaller blood meals
